Source: ChEMBL document CHEMBL3885881, “DrugMatrix”

Organism: Rattus norvegicus
Experiment: DrugMatrix - Regimen: Daily Repeat
Format: toxicity, organism-based, Sprague-Dawley
Design: regimen Daily Repeat, gender Male, age 6-8 weeks
Settings: in vivo, po, route oral GAVAGE, […]; for POTASSIUM / SODIUM / TOTAL BILIRUBIN / TOTAL PROTEIN / URIC ACID / ALANINE AMINOTRANSFERASE / ALBUMIN / ALKALINE PHOSPHATASE / ASPARTATE AMINOTRANSFERASE / BLOOD UREA NITROGEN / CARBON DIOXIDE / CHLORIDE / CHOLESTEROL / CREATINE PHOSPHOKINASE / CREATININE / GLUCOSE / LIPASE / PHOSPHORUS / LACTATE DEHYDROGENASE: tissue Plasma; for ABSOLUTE BASOPHIL / ABSOLUTE EOSINOPHIL / ABSOLUTE LYMPHOCYTE / ABSOLUTE MONOCYTE / BASOPHIL / EOSINOPHIL / ERYTHROCYTE COUNT / HEMATOCRIT / HEMOGLOBIN / LEUKOCYTE COUNT / LYMPHOCYTE / MEAN CORPUSCULAR HEMOGLOBIN / MEAN CORPUSCULAR HEMOGLOBIN CONCENTRATION / MEAN CORPUSCULAR VOLUME / MONOCYTE / NEUTROPHIL / PLATELET COUNT: tissue Blood
[1] = 0 mg/kg, 72 h, dose level Control, time 3 day
[2] = 0 mg/kg, 120 h, dose level Control, time 5 day
[3] = 0 mg/kg, dose level Control, time 14 day
[4] = 15 mg/kg, 72 h, dose level High, time 3 day
[5] = 15 mg/kg, 120 h, dose level High, time 5 day
[6] = 15 mg/kg, dose level High, time 14 day

Compound: CC(CCc1ccc(O)cc1)NCCc1ccc(O)c(O)c1 (configuration not stated) [DOBUTAMINE]
- POTASSIUM [1]: 6.13 MEQ/L
- SODIUM [1]: 145 MEQ/L
- TOTAL BILIRUBIN [1]: 0.43 mg/dL
- TOTAL PROTEIN [1]: 6.7 G/DL
- URIC ACID [1]: 0.83 mg/dL
- ABSOLUTE BASOPHIL [2]: 33.3 cells/µL
- ABSOLUTE EOSINOPHIL [2]: 56.7 cells/µL
- ABSOLUTE LYMPHOCYTE [2]: 9220 cells/µL
- ABSOLUTE MONOCYTE [2]: 230 cells/µL
- BASOPHIL [2]: 0.3%
- EOSINOPHIL [2]: 0.5%
- ERYTHROCYTE COUNT [2]: 6.62 x10E6/uL
- HEMATOCRIT [2]: 46.43%
- HEMOGLOBIN [2]: 14.3 G/DL
- LEUKOCYTE COUNT [2]: 10.96 x10E3/uL
- LYMPHOCYTE [2]: 83.83%
- MEAN CORPUSCULAR HEMOGLOBIN [2]: 21.57 pg
- MEAN CORPUSCULAR HEMOGLOBIN CONCENTRATION [2]: 30.77 G/DL
- MEAN CORPUSCULAR VOLUME [2]: 70.13 fL
- MONOCYTE [2]: 2.1%
- NEUTROPHIL [2]: 12.53%
- PLATELET COUNT [2]: 1056.67 x10E3/uL
- ALANINE AMINOTRANSFERASE [2]: 41.33 u/L
- ALBUMIN [2]: 4.07 G/DL
- ALKALINE PHOSPHATASE [2]: 603.33 u/L
- ASPARTATE AMINOTRANSFERASE [2]: 80 u/L
- BLOOD UREA NITROGEN [2]: 14.67 mg/dL
- CARBON DIOXIDE [2]: 43 mmol/L
- CHLORIDE [2]: 104 MEQ/L
- CHOLESTEROL [2]: 88.33 mg/dL
- CREATINE PHOSPHOKINASE [2]: 391.67 u/L
- CREATININE [2]: 0.47 mg/dL
- GLUCOSE [2]: 156 mg/dL
- LIPASE [2]: 10.67 u/L
- PHOSPHORUS [2]: 9.03 mg/dL
- POTASSIUM [2]: 6.1 MEQ/L
- SODIUM [2]: 145.67 MEQ/L
- TOTAL BILIRUBIN [2]: 0.37 mg/dL
- TOTAL PROTEIN [2]: 6.53 G/DL
- URIC ACID [2]: 0.5 mg/dL
- ABSOLUTE BASOPHIL [3]: 73.3 cells/µL
- ABSOLUTE EOSINOPHIL [3]: 60 cells/µL
- ABSOLUTE LYMPHOCYTE [3]: 12200 cells/µL
- ABSOLUTE MONOCYTE [3]: 250 cells/µL
- BASOPHIL [3]: 0.5%
- EOSINOPHIL [3]: 0.37%
- ERYTHROCYTE COUNT [3]: 7.33 x10E6/uL
- HEMATOCRIT [3]: 44.3%
- HEMOGLOBIN [3]: 14.77 G/DL
- LEUKOCYTE COUNT [3]: 14.86 x10E3/uL
- LYMPHOCYTE [3]: 81.87%
- MEAN CORPUSCULAR HEMOGLOBIN [3]: 20.2 pg
- MEAN CORPUSCULAR HEMOGLOBIN CONCENTRATION [3]: 33.33 G/DL
- MEAN CORPUSCULAR VOLUME [3]: 60.57 fL
- MONOCYTE [3]: 1.63%
- NEUTROPHIL [3]: 14.93%
- PLATELET COUNT [3]: 1101.67 x10E3/uL
- ALANINE AMINOTRANSFERASE [3]: 31.67 u/L
- ALBUMIN [3]: 3.83 G/DL
- ALKALINE PHOSPHATASE [3]: 430.67 u/L
- ASPARTATE AMINOTRANSFERASE [3]: 87 u/L
- BLOOD UREA NITROGEN [3]: 14.33 mg/dL
- CARBON DIOXIDE [3]: 39 mmol/L
- CHLORIDE [3]: 104 MEQ/L
- CHOLESTEROL [3]: 66 mg/dL
- CREATINE PHOSPHOKINASE [3]: 441.67 u/L
- CREATININE [3]: 0.7 mg/dL
- GLUCOSE [3]: 125.67 mg/dL
- LACTATE DEHYDROGENASE [3]: 397.67 u/L
- LIPASE [3]: 12.33 u/L
- PHOSPHORUS [3]: 9.87 mg/dL
- POTASSIUM [3]: 5.93 MEQ/L
- SODIUM [3]: 145 MEQ/L
- TOTAL BILIRUBIN [3]: 0.37 mg/dL
- TOTAL PROTEIN [3]: 6.27 G/DL
- URIC ACID [3]: 0.67 mg/dL
- ABSOLUTE BASOPHIL [4]: 23.3 cells/µL
- ABSOLUTE EOSINOPHIL [4]: 50 cells/µL
- ABSOLUTE LYMPHOCYTE [4]: 6060 cells/µL
- ABSOLUTE MONOCYTE [4]: 170 cells/µL
- BASOPHIL [4]: 0.3%
- EOSINOPHIL [4]: 0.67%
- ERYTHROCYTE COUNT [4]: 6.67 x10E6/uL
- HEMATOCRIT [4]: 46.03%
- HEMOGLOBIN [4]: 14.2 G/DL
- LEUKOCYTE COUNT [4]: 8.35 x10E3/uL
- LYMPHOCYTE [4]: 72.8%
- MEAN CORPUSCULAR HEMOGLOBIN [4]: 21.33 pg
- MEAN CORPUSCULAR HEMOGLOBIN CONCENTRATION [4]: 30.87 G/DL
- MEAN CORPUSCULAR VOLUME [4]: 69.1 fL
- MONOCYTE [4]: 2.07%
- NEUTROPHIL [4]: 23.9%
- PLATELET COUNT [4]: 1110.33 x10E3/uL
- ALANINE AMINOTRANSFERASE [4]: 48.33 u/L
- ALBUMIN [4]: 4.07 G/DL
- ALKALINE PHOSPHATASE [4]: 498.67 u/L
- ASPARTATE AMINOTRANSFERASE [4]: 85.67 u/L
- BLOOD UREA NITROGEN [4]: 18.67 mg/dL
- CARBON DIOXIDE [4]: 41.67 mmol/L
- CHLORIDE [4]: 105 MEQ/L
- CHOLESTEROL [4]: 71.67 mg/dL
- CREATINE PHOSPHOKINASE [4]: 568.67 u/L
- CREATININE [4]: 0.6 mg/dL
- GLUCOSE [4]: 196 mg/dL
- LIPASE [4]: 199.67 u/L
- PHOSPHORUS [4]: 9.2 mg/dL
- POTASSIUM [4]: 5.77 MEQ/L
- SODIUM [4]: 147.67 MEQ/L
- TOTAL BILIRUBIN [4]: 0.43 mg/dL
- TOTAL PROTEIN [4]: 6.67 G/DL
- URIC ACID [4]: 0.6 mg/dL
- ABSOLUTE BASOPHIL [5]: 26.7 cells/µL
- ABSOLUTE EOSINOPHIL [5]: 26.7 cells/µL
- ABSOLUTE LYMPHOCYTE [5]: 7530 cells/µL
- ABSOLUTE MONOCYTE [5]: 170 cells/µL
- BASOPHIL [5]: 0.27%
- EOSINOPHIL [5]: 0.33%
- ERYTHROCYTE COUNT [5]: 6.8 x10E6/uL
- HEMATOCRIT [5]: 46.17%
- HEMOGLOBIN [5]: 14.17 G/DL
- LEUKOCYTE COUNT [5]: 9.18 x10E3/uL
- LYMPHOCYTE [5]: 82.07%
- MEAN CORPUSCULAR HEMOGLOBIN [5]: 20.87 pg
- MEAN CORPUSCULAR HEMOGLOBIN CONCENTRATION [5]: 30.73 G/DL
- MEAN CORPUSCULAR VOLUME [5]: 67.93 fL
- MONOCYTE [5]: 1.87%
- NEUTROPHIL [5]: 15%
- PLATELET COUNT [5]: 1523.67 x10E3/uL
- ALANINE AMINOTRANSFERASE [5]: 40.67 u/L
- ALBUMIN [5]: 4.2 G/DL
- ALKALINE PHOSPHATASE [5]: 613.33 u/L
- ASPARTATE AMINOTRANSFERASE [5]: 74.67 u/L
- BLOOD UREA NITROGEN [5]: 17 mg/dL
- CARBON DIOXIDE [5]: 40.67 mmol/L
- CHLORIDE [5]: 107.33 MEQ/L
- CHOLESTEROL [5]: 84.33 mg/dL
- CREATINE PHOSPHOKINASE [5]: 393 u/L
- CREATININE [5]: 0.53 mg/dL
- GLUCOSE [5]: 174.33 mg/dL
- LIPASE [5]: 199.33 u/L
- PHOSPHORUS [5]: 10.1 mg/dL
- POTASSIUM [5]: 6.07 MEQ/L
- SODIUM [5]: 149.33 MEQ/L
- TOTAL BILIRUBIN [5]: 0.4 mg/dL
- TOTAL PROTEIN [5]: 6.73 G/DL
- URIC ACID [5]: 0.87 mg/dL
- ABSOLUTE BASOPHIL [6]: 52 cells/µL
- ABSOLUTE EOSINOPHIL [6]: 40 cells/µL
- ABSOLUTE LYMPHOCYTE [6]: 9620 cells/µL
- ABSOLUTE MONOCYTE [6]: 200 cells/µL
- BASOPHIL [6]: 0.42%
- EOSINOPHIL [6]: 0.34%
- ERYTHROCYTE COUNT [6]: 7.05 x10E6/uL
- HEMATOCRIT [6]: 43.9%
- HEMOGLOBIN [6]: 14.6 G/DL
- LEUKOCYTE COUNT [6]: 12.04 x10E3/uL
- LYMPHOCYTE [6]: 79.76%
- MEAN CORPUSCULAR HEMOGLOBIN [6]: 20.7 pg
- MEAN CORPUSCULAR HEMOGLOBIN CONCENTRATION [6]: 33.26 G/DL
- MEAN CORPUSCULAR VOLUME [6]: 62.28 fL
- MONOCYTE [6]: 1.68%
- NEUTROPHIL [6]: 17.28%
- PLATELET COUNT [6]: 1124.2 x10E3/uL
- ALANINE AMINOTRANSFERASE [6]: 35 u/L
- ALBUMIN [6]: 4.04 G/DL
- ALKALINE PHOSPHATASE [6]: 405.4 u/L
- ASPARTATE AMINOTRANSFERASE [6]: 77.8 u/L
- BLOOD UREA NITROGEN [6]: 14 mg/dL
- CARBON DIOXIDE [6]: 43.2 mmol/L
- CHLORIDE [6]: 103 MEQ/L
- CHOLESTEROL [6]: 69.8 mg/dL
- CREATINE PHOSPHOKINASE [6]: 325.8 u/L
- CREATININE [6]: 0.8 mg/dL
- GLUCOSE [6]: 144.4 mg/dL
- LACTATE DEHYDROGENASE [6]: 182.2 u/L
- LIPASE [6]: 12.2 u/L
- PHOSPHORUS [6]: 10.48 mg/dL
- POTASSIUM [6]: 6.04 MEQ/L
- SODIUM [6]: 147 MEQ/L
- TOTAL BILIRUBIN [6]: 0.36 mg/dL
- TOTAL PROTEIN [6]: 6.56 G/DL
- URIC ACID [6]: 0.66 mg/dL
